Measured values published in ChEMBL document CHEMBL2406948, “Skeletal rearrangement of seven-membered iminosugars: synthesis of (-)-adenophorine, (-)-1-epi-adenophorine and derivatives and evaluation as glycosidase inhibitors” (Bioorg Med Chem, 2013).

Assays:
[1] = target: T1, Glucosylceramidase (Bos taurus) (UniProt Q2KHZ8); test: Inhibition of bovine liver beta-glucosidase at 1000 uM
T1 sequence (whole entry): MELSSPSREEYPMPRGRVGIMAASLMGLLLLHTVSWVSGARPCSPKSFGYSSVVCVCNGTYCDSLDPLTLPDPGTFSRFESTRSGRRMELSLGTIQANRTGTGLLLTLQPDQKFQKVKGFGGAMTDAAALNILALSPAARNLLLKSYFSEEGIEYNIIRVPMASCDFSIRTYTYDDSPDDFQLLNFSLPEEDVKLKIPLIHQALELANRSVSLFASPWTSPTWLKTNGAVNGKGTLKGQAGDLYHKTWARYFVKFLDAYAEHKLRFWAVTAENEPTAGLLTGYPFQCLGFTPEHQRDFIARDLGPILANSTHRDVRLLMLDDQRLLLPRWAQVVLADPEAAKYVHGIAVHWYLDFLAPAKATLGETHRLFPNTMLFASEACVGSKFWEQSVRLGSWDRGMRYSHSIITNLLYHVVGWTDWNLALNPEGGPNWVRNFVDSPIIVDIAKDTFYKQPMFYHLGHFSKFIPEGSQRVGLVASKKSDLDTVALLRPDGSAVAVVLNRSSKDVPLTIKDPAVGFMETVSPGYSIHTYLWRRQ

Escherichia coli = test: Inhibition of Escherichia coli beta-glucuronidase at 1000 uM
[2] = target: T2, Tissue alpha-L-fucosidase (Bos taurus, UniProt Q2KIM0); test: Inhibition of bovine kidney alpha-L-fucosidase
T2 sequence (Q2KIM0 whole entry): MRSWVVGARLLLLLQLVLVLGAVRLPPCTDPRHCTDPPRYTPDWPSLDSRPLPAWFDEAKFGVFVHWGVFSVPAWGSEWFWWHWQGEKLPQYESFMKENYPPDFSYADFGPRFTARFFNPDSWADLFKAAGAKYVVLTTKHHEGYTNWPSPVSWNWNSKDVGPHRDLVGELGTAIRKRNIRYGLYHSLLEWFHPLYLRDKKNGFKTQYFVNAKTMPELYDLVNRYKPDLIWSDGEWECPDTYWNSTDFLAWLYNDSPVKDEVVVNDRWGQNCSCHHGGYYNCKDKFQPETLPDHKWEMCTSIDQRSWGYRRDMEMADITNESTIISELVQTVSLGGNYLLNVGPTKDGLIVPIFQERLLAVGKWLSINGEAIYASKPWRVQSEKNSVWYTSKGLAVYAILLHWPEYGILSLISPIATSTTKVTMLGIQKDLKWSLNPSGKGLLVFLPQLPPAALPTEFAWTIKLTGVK

Penicillium decumbens = test: Inhibition of Penicillium decumbens alpha-L-rhamnosidase at 1000 uM
[3] = target: T3, Beta-galactosidase (Bos taurus) (UniProt Q58D55); test: Inhibition of bovine liver beta-galactosidase at 1000 uM
T3 sequence (whole entry): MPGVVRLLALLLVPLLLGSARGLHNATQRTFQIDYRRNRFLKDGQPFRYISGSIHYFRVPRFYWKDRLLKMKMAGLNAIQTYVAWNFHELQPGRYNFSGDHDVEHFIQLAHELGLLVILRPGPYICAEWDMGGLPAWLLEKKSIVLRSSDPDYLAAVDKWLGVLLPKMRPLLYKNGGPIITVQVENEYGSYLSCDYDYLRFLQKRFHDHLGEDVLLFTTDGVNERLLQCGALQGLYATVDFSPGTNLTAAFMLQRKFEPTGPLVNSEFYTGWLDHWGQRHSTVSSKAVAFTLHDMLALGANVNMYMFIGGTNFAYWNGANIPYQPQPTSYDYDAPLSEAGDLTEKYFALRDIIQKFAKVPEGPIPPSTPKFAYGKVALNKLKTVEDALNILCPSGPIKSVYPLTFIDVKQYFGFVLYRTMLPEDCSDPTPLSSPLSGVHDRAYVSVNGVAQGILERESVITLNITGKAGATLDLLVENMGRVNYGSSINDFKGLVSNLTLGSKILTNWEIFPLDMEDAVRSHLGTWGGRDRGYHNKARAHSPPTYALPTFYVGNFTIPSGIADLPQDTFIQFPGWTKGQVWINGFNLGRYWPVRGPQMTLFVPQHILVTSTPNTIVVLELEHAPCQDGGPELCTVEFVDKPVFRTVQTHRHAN

[4] = Inhibition of Escherichia coli beta-glucuronidase
[5] = target: T4, Tissue alpha-L-fucosidase (Bos taurus) (UniProt Q2KIM0); test: Inhibition of bovine kidney alpha-L-fucosidase at 1000 uM
T4 sequence (whole entry): T2 sequence (Q2KIM0 whole entry)

[6] = Inhibition of Penicillium decumbens alpha-L-rhamnosidase
Beta-galactosidase = target: T5, Beta-galactosidase (Bos taurus, UniProt Q58D55); test: Inhibition of bovine liver beta-galactosidase
T5 sequence (Q58D55 whole entry): T3 sequence (whole entry)

| Structure (SMILES) | inhibition [1] [%] | inhibition (Escherichia coli) [%] | IC50 [2] [µM] | inhibition (Penicillium decumbens) [%] | inhibition [3] [%] | IC50 [4] [µM] | inhibition [5] [%] | IC50 [6] [µM] | IC50 (Beta-galactosidase) [µM] |
| --- | --- | --- | --- | --- | --- | --- | --- | --- | --- |
| CC[C@H]1N[C@@H](CO)[C@@H](O)[C@H](O)[C@H]1O | 32.8 | 11 | 208 | 2.4 | 20.3 |  |  |  |  |
| CCC[C@@H]1N[C@@H](CO)[C@@H](O)[C@H](O)[C@H]1O | 13.2 |  | 713 | 13 | 26.8 | 586 |  |  |  |
| CC[C@@H]1N[C@H](CC)[C@H](O)[C@@H](O)[C@@H]1O | 21.6 | 12.9 |  | 0 | 9.7 |  | 0 |  |  |
| CC[C@@H]1N[C@@H](CO)[C@@H](O)[C@H](O)[C@H]1O | 12.6 | 7.2 | 72 | 37.7 | 6.5 |  |  |  |  |

The remaining lines, values ahead:

| inhibition [1] [%] | inhibition (Escherichia coli) [%] | IC50 [2] [µM] | inhibition (Penicillium decumbens) [%] | inhibition [3] [%] | IC50 [4] [µM] | inhibition [5] [%] | IC50 [6] [µM] | IC50 (Beta-galactosidase) [µM] | Structure (SMILES) |
| --- | --- | --- | --- | --- | --- | --- | --- | --- | --- |
|  | 18.1 |  |  |  |  | 37.2 | 231 | 526 | CC[C@@H]1NC[C@@H](O)[C@@H](O)[C@H](O)[C@H]1O |
| 24.6 | 3.1 |  | 5.3 | 12.1 |  | 36.7 |  |  | CC[C@H]1NC[C@@H](O)[C@@H](O)[C@H](O)[C@H]1O |
